System: 171881-019-R-J1-PDC tumor spheroid viability
Test: Anticancer human tumor 171881-019-R-J1-PDC patient-derived invasive breast carcinoma cell line growth inhibition [PI3K]
Settings: spheroids with HUVEC and MSC; for IC50: curve of first compound; for viability, T/C: stronger effect = lower value
How it was run: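 Combination activity was assessed by viability in multicellular tumor spheroids carrying HUVEC and MSC components. Agents were tested with PI3K inhibitors from a Cmax-based top dose (or 10 microM) downward in half-log increments.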

[1] = second compound 0.00316 µM, first compound 0.0316 µM
[2] = second compound 0.00316 µM, first compound 0.1 µM
[3] = second compound 0.00316 µM, first compound 0.316 µM
[4] = second compound 0.00316 µM, first compound 1 µM
[5] = second compound 0.00316 µM, first compound 3.16 µM
[6] = second compound 0.00316 µM, first compound 10 µM
[7] = second compound 0.01 µM, first compound 0.0316 µM
[8] = second compound 0.01 µM, first compound 0.1 µM
[9] = second compound 0.01 µM, first compound 0.316 µM
[10] = second compound 0.01 µM, first compound 1 µM
[11] = second compound 0.01 µM, first compound 3.16 µM
[12] = second compound 0.01 µM, first compound 10 µM
[13] = second compound 0.0316 µM, first compound 0.0316 µM
[14] = second compound 0.0316 µM, first compound 0.1 µM
[15] = second compound 0.0316 µM, first compound 0.316 µM
[16] = second compound 0.0316 µM, first compound 1 µM
[17] = second compound 0.0316 µM, first compound 3.16 µM
[18] = second compound 0.0316 µM, first compound 10 µM
[19] = second compound 0.1 µM, first compound 0.0316 µM
[20] = second compound 0.1 µM, first compound 0.1 µM
[21] = second compound 0.1 µM, first compound 0.316 µM
[22] = second compound 0.1 µM, first compound 1 µM
[23] = second compound 0.1 µM, first compound 3.16 µM
[24] = second compound 0.1 µM, first compound 10 µM
[25] = second compound 0.316 µM, first compound 0.0316 µM
[26] = second compound 0.316 µM, first compound 0.1 µM
[27] = second compound 0.316 µM, first compound 0.316 µM
[28] = second compound 0.316 µM, first compound 1 µM
[29] = second compound 0.316 µM, first compound 3.16 µM
[30] = second compound 0.316 µM, first compound 10 µM
[31] = second compound 1 µM, first compound 0.0316 µM
[32] = second compound 1 µM, first compound 0.1 µM
[33] = second compound 1 µM, first compound 0.316 µM
[34] = second compound 1 µM, first compound 1 µM
[35] = second compound 1 µM, first compound 3.16 µM
[36] = second compound 1 µM, first compound 10 µM
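Further: spheroids exposed to compound for 7 days before viability read.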
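Wherever viability, T/C is given: 100% = DMSO vehicle-treated spheroids.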

## C#Cc1c(F)ccc2cc(O)cc(-c3ncc4c(N5CC6CCC(C5)N6)nc(OCC56CCCN5CC(F)C6)nc4c3F)c12 (stereo unspecified) + CC(Nc1ccc2c(c1)OCCn1cc(N3C(=O)OCC3C(F)F)nc1-2)C(N)=O
Second compound 0.00316 µM
  IC50: 187 nM
Second compound 0.01 µM
  IC50: 99.6 nM
Second compound 0.0316 µM
  IC50: < 31.6 nM
Second compound 0.1 µM
  IC50: < 31.6 nM
Second compound 0.316 µM
  IC50: < 31.6 nM
Second compound 1 µM
  IC50: < 31.6 nM
[1]
  viability, T/C: 72.4%
[2]
  viability, T/C: 57.1%
[3]
  viability, T/C: 44.4%
[4]
  viability, T/C: 32.8%
[5]
  viability, T/C: 28.8%
[6]
  viability, T/C: 22%
[7]
  viability, T/C: 65%
[8]
  viability, T/C: 51.7%
[9]
  viability, T/C: 32%
[10]
  viability, T/C: 27.5%
[11]
  viability, T/C: 22.2%
[12]
  viability, T/C: 17.1%
[13]
  viability, T/C: 42.7%
[14]
  viability, T/C: 37.2%
[15]
  viability, T/C: 26.4%
[16]
  viability, T/C: 18.3%
[17]
  viability, T/C: 14.9%
[18]
  viability, T/C: 12.7%
[19]
  viability, T/C: 31.1%
[20]
  viability, T/C: 23.6%
[21]
  viability, T/C: 15.6%
[22]
  viability, T/C: 11.9%
[23]
  viability, T/C: 9.09%
[24]
  viability, T/C: 8.33%
[25]
  viability, T/C: 21.1%
[26]
  viability, T/C: 15.7%
[27]
  viability, T/C: 10.4%
[28]
  viability, T/C: 7.74%
[29]
  viability, T/C: 6.88%
[30]
  viability, T/C: 6.22%
[31]
  viability, T/C: 17.2%
[32]
  viability, T/C: 12.3%
[33]
  viability, T/C: 7.9%
[34]
  viability, T/C: 7.17%
[35]
  viability, T/C: 5.55%
[36]
  viability, T/C: 4.36%

## CC(Cn1ccc(-c2ccc(C#N)c(Cl)c2)n1)NC(=O)c1cc(C(C)O)[nH]n1 (stereo unspecified) + CC(Nc1ccc2c(c1)OCCn1cc(N3C(=O)OCC3C(F)F)nc1-2)C(N)=O
Second compound 0.00316 µM
  IC50: > 10000 nM
Second compound 0.01 µM
  IC50: > 10000 nM
Second compound 0.0316 µM
  IC50: 4210 nM
Second compound 0.1 µM
  IC50: < 31.6 nM
Second compound 0.316 µM
  IC50: < 31.6 nM
Second compound 1 µM
  IC50: < 31.6 nM
[1]
  viability, T/C: 74.5%
[2]
  viability, T/C: 85%
[3]
  viability, T/C: 92%
[4]
  viability, T/C: 93.9%
[5]
  viability, T/C: 88.5%
[6]
  viability, T/C: 54.3%
[7]
  viability, T/C: 75.1%
[8]
  viability, T/C: 80.9%
[9]
  viability, T/C: 78.6%
[10]
  viability, T/C: 80.5%
[11]
  viability, T/C: 83.4%
[12]
  viability, T/C: 57.7%
[13]
  viability, T/C: 50.2%
[14]
  viability, T/C: 57.4%
[15]
  viability, T/C: 54.4%
[16]
  viability, T/C: 53.7%
[17]
  viability, T/C: 59.2%
[18]
  viability, T/C: 35.1%
[19]
  viability, T/C: 41.1%
[20]
  viability, T/C: 36.2%
[21]
  viability, T/C: 38.5%
[22]
  viability, T/C: 39.8%
[23]
  viability, T/C: 39%
[24]
  viability, T/C: 27.3%
[25]
  viability, T/C: 26.7%
[26]
  viability, T/C: 26.5%
[27]
  viability, T/C: 25.8%
[28]
  viability, T/C: 27%
[29]
  viability, T/C: 25.8%
[30]
  viability, T/C: 19.4%
[31]
  viability, T/C: 19.6%
[32]
  viability, T/C: 20.6%
[33]
  viability, T/C: 19.7%
[34]
  viability, T/C: 20.8%
[35]
  viability, T/C: 19.1%
[36]
  viability, T/C: 14.3%

## CC1(C)CCC(Nc2ncc(C(F)(F)F)c(-c3c[nH]c4c(P(C)(C)=O)c(C#N)ccc34)n2)CN1 (stereo unspecified) + CC(Nc1ccc2c(c1)OCCn1cc(N3C(=O)OCC3C(F)F)nc1-2)C(N)=O
Second compound 0.00316 µM
  IC50: 5040 nM
Second compound 0.01 µM
  IC50: 4480 nM
Second compound 0.0316 µM
  IC50: 1660 nM
Second compound 0.1 µM
  IC50: < 31.6 nM
Second compound 0.316 µM
  IC50: < 31.6 nM
Second compound 1 µM
  IC50: < 31.6 nM
[1]
  viability, T/C: 68%
[2]
  viability, T/C: 70.8%
[3]
  viability, T/C: 74.5%
[4]
  viability, T/C: 72.6%
[5]
  viability, T/C: 81.4%
[6]
  viability, T/C: 15.6%
[7]
  viability, T/C: 60.8%
[8]
  viability, T/C: 65.4%
[9]
  viability, T/C: 65.8%
[10]
  viability, T/C: 73.6%
[11]
  viability, T/C: 66.9%
[12]
  viability, T/C: 12%
[13]
  viability, T/C: 44.7%
[14]
  viability, T/C: 49.7%
[15]
  viability, T/C: 54.6%
[16]
  viability, T/C: 57.4%
[17]
  viability, T/C: 47.4%
[18]
  viability, T/C: 5.82%
[19]
  viability, T/C: 34.1%
[20]
  viability, T/C: 37%
[21]
  viability, T/C: 39.9%
[22]
  viability, T/C: 40.4%
[23]
  viability, T/C: 33.3%
[24]
  viability, T/C: 2.6%
[25]
  viability, T/C: 27.7%
[26]
  viability, T/C: 26.8%
[27]
  viability, T/C: 30.2%
[28]
  viability, T/C: 29.4%
[29]
  viability, T/C: 24.4%
[30]
  viability, T/C: 1.37%
[31]
  viability, T/C: 21.3%
[32]
  viability, T/C: 22.5%
[33]
  viability, T/C: 23.6%
[34]
  viability, T/C: 22.9%
[35]
  viability, T/C: 16.8%
[36]
  viability, T/C: 1.29%
